Results reported in PMC12521615, “Accurate affinity models for SH2 domains from peptide binding assays and free‐energy regression” (Protein Science : A Publication of the Protein Society, 2025).
pKd: −log10 of the molar value. Non-standard residues stand in square brackets, D forms with d. Residues, ends and D or L forms follow the SMILES beside them. pY = N[C@@H](Cc1ccc(OP(=O)(O)O)cc1)C(=O)O

What was measured:
Lyn SH2 domain = target: T1, Lyn SH2 domain (Homo sapiens, UniProt P07948); experiment: competitive fluorescence polarization, Lyn SH2 domain; format: binding; details: Table S3, unpaired validation; competition fluorescence polarization; probe FITC-Ahx-GDG-pY-EEISPLLL-NH2 30 nM; [SH2] 106 nM; mean
T1 construct: The human SH2 domains from Fyn (142–248), Lyn (121–228); His6-SUMO (N, cleaved yes); host or cells: Escherichia coli C43(DE3) with BirA helper plasmid
Source text: First, we generated bacterial display datasets and affinity models for three additional SH2 domains from Src‐family kinases Lyn, Blk, and Yes (Figure 5a). For validation of the affinity model for Lyn, we selected a subset of phosphopeptides that were likely to fall within the dynamic range of the competitive fluorescence polarization assay (see “Methods” for details). […] We measured binding affinities to the corresponding phosphopeptides by fluorescence polarization.
The human SH2 domains from Fyn (142–248), Lyn (121–228), Blk (116–222), and Yes (150–257) kinases were PCR‐amplified from plasmids encoding the full‐length proteins and cloned using the NEBuilder® HiFi DNA Assembly Master Mix (NEB) in a pET plasmid backbone that was PCR‐amplified with the primers pETXbaI_for and pETXhoI_rev (these and all other primers are defined in Table S7) from the pET‐His6‐SUMO‐Grb2(SH2), as reported before (Li et al., [2023]), thus adding an N‐terminal His6‐SUMO tag and a C‐terminal AviTag® for biotinylation. The SH2 plasmids are available via Addgene: pET28‐His6‐SUMO‐Fyn‐SH2‐AviTag (214202), pET28‐His6‐SUMO‐Blk‐SH2‐AviTag (214204), pET28‐His6‐SUMO‐Lyn‐SH2‐AviTag (214207), pET28‐His6‐SUMO‐Yes‐SH2‐AviTag (214208), and pET28‐His6‐SUMO‐cSrc‐SH2‐AviTag (214230). For expression and parallel biotinylating of the SH2 domain product, Escherichia coli C43(DE3) cells carrying a BirA encoding helper plasmid were transformed with the respective SH2 domain expression construct and plated to grow overnight at 37°C on a streptomycin and kanamycin (100 μg/mL both) LB‐agar plate. The colonies were collected in 10 mL of TB medium and used to inoculate 1 L of TB medium and grown at 37°C and 215 rpm. Upon reaching an OD600 of 0.5, the expression of the SH2 domains was induced by adding IPTG up to 0.5 mM and biotin up to 250 μM, and the expressing culture was incubated at 18°C for 16–18 h. After removing the medium through centrifugation, the cell pellets were snap‐frozen in liquid N2 and stored at −80°C until purification. To purify the biotinylated SH2 domains, the cell pellets were resuspended in lysis buffer (50 mM Tris, pH 7.5, 300 mM NaCl, 20 mM imidazole, 10% glycerol), supplementing them with 2 mM β‐mercaptoethanol and 1× protease inhibitor cocktail before lysis by sonication (Fisherbrand Sonic Dismembrator). The soluble fraction separated after centrifugation at 33,000 g was run on a HisTrap HP column (Cytiva), then washed with 10 CV of the lysis buffer followed by 10 CV of wash buffer (50 mM Tris, pH 7.5, 50 mM NaCl, 10 mM imidazole, 10% glycerol). Next, the protein was eluted with elution buffer (50 mM Tris, pH 7.5, 50 mM NaCl, 250 mM imidazole, 10% glycerol) directly onto a 5 mL HiTrap Q HP anion exchange column (Cytiva). The biotinylated SH2 domain was then eluted from the anion exchange column with an NaCl gradient (50 mM Tris, pH 7.5, 0.05–1 M NaCl, 1 mM TCEP‐HCl), and the His6‐SUMO tag was cleaved using 0.05 mg/mL Ulp1 protease. The biotinylated SH2 domain was then collected in a flowthrough after running the cleavage reaction over a HisTrap HP column. Finally, the biotinylated SH2 domain in the flowthrough was run on a HiLoad 16/600 Superdex 75 pg size exclusion column (Cytiva) in storage buffer (20 mM HEPES, pH 7.5, 150 mM NaCl, 10% glycerol).

c-Src SH2 domain = target: T2, c-Src SH2 domain (Homo sapiens, UniProt P12931); experiment: competitive fluorescence polarization, c-Src SH2 domain; format: binding; details: Table S3, unpaired validation; competition fluorescence polarization; probe FITC-Ahx-GDG-pY-EEISPLLL-NH2 30 nM; [SH2] 123-126 nM; mean
T2 construct: the SH2 domain from c‐Src kinase; His6-SUMO (N, cleaved yes); host or cells: Escherichia coli C43(DE3) with BirA helper plasmid
Source text: Measured binding constants (K D) from competition mode fluorescence polarization experiments were obtained using the purified SH2 domains used for the selection and chosen sets of peptides with a phosphorylated tyrosine exactly as described previously (Li et al., [2023]). […] Before performing the competition mode fluorescence polarization measurement, the K D of the probes for the respective SH2 domains was first measured in a direct mode of fluorescence polarization. […] Using the validation data for the Fyn SH2 domain, the range of predicted relative binding affinities that corresponds to the range between 1 nM and 100 μM, which is the dynamic range of reliable measurement of absolute binding affinities using our competitive fluorescence polarization setup, was defined and used to further filter the set of candidate phosphopeptides. A subset that evenly covers the chosen range of predicted relative affinities was finally picked for the validation measurements of the Lyn SH2 domain.

Grb2 SH2 domain = Grb2 SH2 domain (Homo sapiens, UniProt P62993); experiment: biochemical
Source text: Measured binding constants (K D) from competition mode fluorescence polarization experiments were obtained using the purified SH2 domains used for the selection and chosen sets of peptides with a phosphorylated tyrosine exactly as described previously (Li et al., [2023]). […] (c‐Src SH2 consensus) was used as the probe, and for the Grb2 SH2 domain, the fluorescently labeled peptide FITC‐Ahx‐FDDPS(pY)VNVQN (Ahx = 6‐aminohexanoic acid) from the Y177 phospho‐tyrosine site of BCR. Before performing the competition mode fluorescence polarization measurement, the K D of the probes for the respective SH2 domains was first measured in a direct mode of fluorescence polarization. […] For the set of peptides where single point mutations were compared, phosphopeptides reported in the PhosphoSitePlus database (Hornbeck et al., [2015]) and previously shown to bind to the c‐Src SH2 domain (Li et al., [2023]) were chosen alongside their respective single point mutants. To choose phosphopeptides for validation of the Lyn SH2 domain, we started from all verified phosphopeptides found in PhosphoSitePlus, filtered based on their co‐expression with the Lyn kinase using the STRING database. Using the validation data for the Fyn SH2 domain, the range of predicted relative binding affinities that corresponds to the range between 1 nM and 100 μM, which is the dynamic range of reliable measurement of absolute binding affinities using our competitive fluorescence polarization setup, was defined and used to further filter the set of candidate phosphopeptides. A subset that evenly covers the chosen range of predicted relative affinities was finally picked for the validation measurements of the Lyn SH2 domain. For the c‐Src, Yes, and Blk SH2 domains, a combination of the previously chosen peptides was used, after verifying that their predicted relative affinities for the given SH2 domain fell within the same measurable range. All peptides containing phosphorylated tyrosine, both fluorescently labeled and non‐labeled, were produced by SynPeptide (China).

T2 sequence (P12931 151-248 limits assumed): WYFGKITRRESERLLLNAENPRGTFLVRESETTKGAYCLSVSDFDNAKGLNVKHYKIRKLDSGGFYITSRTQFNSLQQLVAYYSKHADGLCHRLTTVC
T1 sequence (P07948 121-228): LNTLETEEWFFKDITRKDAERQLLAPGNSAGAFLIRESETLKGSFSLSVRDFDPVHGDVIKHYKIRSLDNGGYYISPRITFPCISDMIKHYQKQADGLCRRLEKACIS
Grb2 SH2 domain, sequence (P62993 60-152 limits assumed): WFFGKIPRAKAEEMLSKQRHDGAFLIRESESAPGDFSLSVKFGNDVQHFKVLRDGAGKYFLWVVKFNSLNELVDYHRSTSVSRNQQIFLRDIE

SMILES | pKd (Lyn SH2 domain) | pKd (c-Src SH2 domain) | pKd (Grb2 SH2 domain)
CC(=O)N[C@@H](CCC(N)=O)C(=O)NCC(=O)N[C@@H](CCCNC(=N)N)C(=O)N[C@@H](CCCNC(=N)N)C(=O)N[C@@H](CCC(=O)O)C(=O)N[C@@H](CCC(=O)O)C(=O)N[C@@H](Cc1ccc(OP(=O)(O)O)cc1)C(=O)N[C@@H](CC(=O)O)C(=O)N[C@H](C(=O)N[C@@H](CC(C)C)C(=O)N[C@@H](CC(=O)O)C(=O)N[C@@H](CCCCN)C(=O)NCC(N)=O)C(C)C [CD3Z pY83] (Ac-QGRREE[pY]DVLDKG-NH2) | 5.53 | – | –
CC[C@H](C)[C@H](NC(=O)[C@H](CCC(=O)O)NC(=O)[C@H](CC(=O)O)NC(=O)[C@H](Cc1ccc(OP(=O)(O)O)cc1)NC(=O)[C@@H](NC(=O)[C@H](CCCNC(=N)N)NC(=O)[C@H](CO)NC(=O)[C@H](CCC(=O)O)NC(=O)[C@H](C)NC(=O)[C@H](CCC(N)=O)NC(C)=O)[C@@H](C)CC)C(=O)N[C@@H](CC(C)C)C(=O)N[C@@H](CCC(N)=O)C(=O)NCC(N)=O [CD84 pY296] (Ac-QAESRI[pY]DEILQG-NH2) | 7.04 | 7.55 | –
CC[C@H](C)[C@H](NC(=O)[C@H](CC(N)=O)NC(=O)[C@H](CCCCN)NC(=O)[C@H](Cc1ccc(OP(=O)(O)O)cc1)NC(=O)[C@H](CC(=O)O)NC(=O)[C@@H](NC(=O)CNC(=O)CNC(=O)[C@H](CCC(=O)O)NC(=O)[C@H](CCC(N)=O)NC(C)=O)C(C)C)C(=O)N[C@@H](Cc1c[nH]cn1)C(=O)N[C@@H](CC(C)C)C(=O)NCC(N)=O [CSF1R pY699] (Ac-QEGGVD[pY]KNIHLG-NH2) | 4.64 | – | –
CC[C@H](C)[C@H](NC(=O)[C@H](CC(=O)O)NC(=O)[C@H](CCC(N)=O)NC(C)=O)C(=O)N[C@@H](CC(N)=O)C(=O)N[C@@H](CO)C(=O)N[C@@H](CC(C)C)C(=O)N[C@@H](Cc1ccc(OP(=O)(O)O)cc1)C(=O)N[C@@H](CC(=O)O)C(=O)N[C@H](C(=O)N[C@@H](CO)C(=O)N[C@@H](CCCNC(=N)N)C(=O)N[C@@H](CCSC)C(=O)NCC(N)=O)C(C)C [PLCG2 pY 753] (Ac-QDINSL[pY]DVSRMG-NH2) | 4.93 | 4.91 | –
CC(=O)N[C@@H](CCC(N)=O)C(=O)N[C@@H](Cc1c[nH]cn1)C(=O)N[C@@H](CCCCN)C(=O)N[C@@H](CCC(=O)O)C(=O)N[C@@H](CC(=O)O)C(=O)N[C@H](C(=O)N[C@@H](Cc1ccc(OP(=O)(O)O)cc1)C(=O)N[C@@H](CCC(=O)O)C(=O)N[C@@H](CC(N)=O)C(=O)N[C@@H](CC(C)C)C(=O)N[C@@H](Cc1c[nH]cn1)C(=O)N[C@H](C(=O)NCC(N)=O)[C@@H](C)O)C(C)C [PTPN6 pY564] (Ac-QHKEDV[pY]ENLHTG-NH2) | 6.03 | 6.04 | –
CC[C@H](C)[C@H](NC(=O)[C@H](CCC(=O)O)NC(=O)[C@H](CO)NC(=O)[C@H](Cc1ccc(OP(=O)(O)O)cc1)NC(=O)[C@H](CCC(=O)O)NC(=O)[C@@H](NC(=O)[C@@H](NC(=O)[C@H](CO)NC(=O)[C@@H]1CCCN1C(=O)[C@H](CCC(N)=O)NC(C)=O)[C@@H](C)O)[C@@H](C)O)C(=O)N[C@@H](CCCCN)C(=O)N[C@H](C(=O)NCC(N)=O)[C@@H](C)O [SIGLEC5 pY544] (Ac-QPSTTE[pY]SEIKTG-NH2) | 6.44 | 6.55 | –
CC(=O)N[C@@H](CCC(N)=O)C(=O)N[C@@H](CC(=O)O)C(=O)N[C@@H](CC(=O)O)C(=O)N[C@@H](CCC(N)=O)C(=O)N[C@@H](CCC(=O)O)C(=O)N[C@H](C(=O)N[C@@H](Cc1ccc(OP(=O)(O)O)cc1)C(=O)N[C@@H](CC(=O)O)C(=O)N[C@@H](CC(=O)O)C(=O)N[C@H](C(=O)N[C@@H](C)C(=O)N[C@@H](CCC(=O)O)C(=O)NCC(N)=O)C(C)C)C(C)C [SLAP-130 pY595] (Ac-QDDQEV[pY]DDVAEG-NH2) | 6.62 | 6.72 | –
CC[C@H](C)[C@H](NC(=O)[C@H](CC(=O)O)NC(=O)[C@H](CC(=O)O)NC(=O)[C@H](Cc1ccc(OP(=O)(O)O)cc1)NC(=O)[C@@H](NC(=O)[C@H](CCC(=O)O)NC(=O)CNC(=O)[C@H](CC(=O)O)NC(=O)[C@H](CC(N)=O)NC(=O)[C@H](CCC(N)=O)NC(C)=O)[C@@H](C)CC)C(=O)N[C@@H](C)C(=O)N[C@@H](CC(=O)O)C(=O)NCC(N)=O [SLAP-130 pY771] (Ac-QNDGEI[pY]DDIADG-NH2) | 7.01 | 7.03 | –
CC[C@H](C)[C@H](NC(=O)[C@H](CC(N)=O)NC(=O)[C@H](Cc1c[nH]cn1)NC(=O)[C@H](CCC(N)=O)NC(C)=O)C(=O)N[C@@H](Cc1c[nH]cn1)C(=O)N[C@@H](CO)C(=O)N[C@@H](Cc1ccc(OP(=O)(O)O)cc1)C(=O)N[C@H](C(=O)N[C@@H](CC(N)=O)C(=O)N[C@H](C(=O)N1CCC[C@H]1C(=O)N1CCC[C@H]1C(=O)NCC(N)=O)[C@@H](C)CC)[C@@H](C)CC [Syn-G2-2] (Ac-QHNIHS[pY]INIPPG-NH2) | – | – | 8.40
CC[C@H](C)[C@H](NC(=O)[C@H](CC(N)=O)NC(=O)[C@H](Cc1c[nH]cn1)NC(=O)[C@H](Cc1ccc(OP(=O)(O)O)cc1)NC(=O)[C@H](CCCNC(=N)N)NC(=O)[C@H](CCC(N)=O)NC(=O)[C@H](Cc1c[nH]cn1)NC(=O)CNC(=O)[C@H](CC(C)C)NC(=O)[C@H](CCC(N)=O)NC(C)=O)C(=O)N[C@H](C(=O)N1CCC[C@H]1C(=O)NCC(N)=O)[C@@H](C)O [Syn-G2-5] (Ac-QLGHQR[pY]HNITPG-NH2) | – | – | 6.31
CC(=O)N[C@@H](CCC(N)=O)C(=O)N[C@@H](CCC(=O)O)C(=O)N[C@@H](Cc1c[nH]c2ccccc12)C(=O)N[C@@H](CCCNC(=N)N)C(=O)N[C@@H](CO)C(=O)N[C@@H](CCC(N)=O)C(=O)N[C@@H](Cc1ccc(OP(=O)(O)O)cc1)C(=O)N[C@@H](CCC(=O)O)C(=O)N[C@@H](C)C(=O)N[C@@H](CC(C)C)C(=O)N[C@@H](CCCCN)C(=O)N[C@@H](CCC(=O)O)C(=O)NCC(N)=O [TRAF3IP3 pY322] (Ac-QEWRSQ[pY]EALKEG-NH2) | 5.40 | 5.19 | –
